These results are taken from patent US6835398B2, “Method of administering high-dose, oral magnesium for treatment of chronic pain syndrome of erythromelalgia” (priority 2001, dated 2004).

Data set [1] deals with patients with erythromelalgia (EM). The experiment in a line: High-dose oral magnesium therapy in erythromelalgia patients: pain and symptom response. In kind it is in vivo, human. The conditions noted are these: for worsening of EM: one patient. An excerpt: (§1) Thirteen patients took nonprescription magnesium oxide ([…]) or magnesium-protein (Mg-protein) products in gradually escalating and divided doses totaling 0.6-5 grams/day elemental magnesium under their physicians' supervision.
Specifically, it is most important that the magnesium compound (sulfate, oxide, carbonate, etc.) be either very finely divided or dissolved. […] Ideally, dosing should begin at RDA levels and increased as tolerance increases, until pain and/or symptom reduction is achieved. This level can then be maintained longterm. This pain reduction and long term dosing can begin as low as 600 mg elemental Mg/day and may be increased until gastrointestinal distress resulting from administration is consistent. This may occur at a dosage as high as 5 g/day elemental magnesium or even higher. Preferably, at least 1 gm magnesium/day should be administered, more preferably 1.2 gm, more preferably 1.5 gm, still more preferably 2 gm Mg/day. Still more preferably 2.5 gm Mg/day, and most preferably at least 3 gm Mg/day should be administered. To reduce the likelihood of gastrointestinal distress, daily dosages should be divided into several smaller administrations of not more than 500 mg elemental magnesium, preferably not more than 250 mg, and more preferably not more than […] Magnesium per dose. These can be administered several times daily to achieve the correct total daily dose. Small doses taken every 1-2 hours can be used, as can slightly larger doses taken every 4-6 hours. The frequency and size of doses is not as important as the total daily dose, provided the patient can tolerate the regimen.
(§2) Although magnesium's potential benefits for many disorders have been described, patients' lack of tolerance to traditional therapeutic doses has precluded widespread utilization. Indeed, some patients have difficulty tolerating the RDA of magnesium. […] All doses were divided and taken at 4-6 hour intervals with copious amounts of water. All patients had normal renal function, which is required for undertaking magnesium therapy.

Data set [2] relates to patient with CRPS1 / erythromelalgia (EM). The experiment in a line: Case study patient #1 (CRPS1/EM): pain and symptom response. In kind it is in vivo, human.
Excerpt: A magnesium treatment regimen was then investigated.
When the infusions were postponed, small doses of the MgSO4 solution was mixed with water and ingested orally.
The test system of a further data set is subjects. The conditions noted are these: 250 mg two times daily, oral, one study; cited from earlier work.
Data set [3] concerns patients with erythromelalgia (EM). As to the kind of experiment: Tolerability of oral magnesium products in patients (diarrhea, adverse effects, achievable dose).
Excerpt: as §1, §2

Entries after “also recorded” stand apart in the source; their conditions may differ.

As for `COc1ccc([C@@H]2Sc3ccccc3N(CCN(C)C)C(=O)[C@@H]2OC(C)=O)cc1` [diltiazem], the “worsening of EM” value in data set [1] was “worsening”. Moreover, in data set [2], the “pain and symptom response” value is on record as “greater, but still limited, benefit”.

Turning to `[Mg+2]` [magnesium], the patients who improved in data set [1] (4 of the 6 patients who reached doses above 1 gram/day (1.2 to 7 grams/day)) is on record as 67%. For the same compound, the “patients who obtained benefit” value in data set [1] (6 of 8 who reached therapeutic levels, with the two already known cases) amounted to 75%. Also, in data set [1] (escalating divided doses totaling 0.6-5 grams/day elemental magnesium, 13 refractory patients), the “patients who obtained substantial pain reduction and improvement in other symptoms” value is reported as “eight of these thirteen”. In addition, the “worsening of EM” value in data set [1] is given as “worsened”. Also, in data set [1] (patients who had previously received nifedipine and/or diltiazem), the “effectiveness and tolerability compared with nifedipine and/or diltiazem” value was “more effective and better tolerated”. Further, the “patients who reported improvement” value in data set [1] (six of 11 EM patients, after 2 months) is recorded as 55%. The “adverse effects in subjects” value with subjects is on record as 45.7%.

For the compound `[O]=[Mg]` [magnesium oxide], in data set [1] (person with CIPD and severe EM, escalating doses to 4-5 grams/day), the “pain and function response” value is “significantly less pain and improved function”. For the same compound, the “pain and flaring response” value in data set [1] (person with EM, escalating doses to 4-5 grams/day, within two weeks) is “marked reduction in pain and flaring”. The same compound displayed a dose reached in data set [3] (one patient unable to tolerate 2 grams of magnesium tablets, blended in water) of 4.5 grams/day.

Take `O=S(=O)([O-])[O-].[Mg+2]` [MgSO4, magnesium sulfate]: in data set [2], the “pain and symptom response” value is listed as “Pain was completely eliminated; also recorded: nearly total remission from EM”. Moreover, in data set [3] (patient #1), the adverse effects entry was “only occasional, mild adverse effects (loose stools, blurred vision)”. In data set [3] (patient #1, 50% MgSO4 solution mixed with water, oral, increased very gradually), this compound displayed a daily dose reached of 12 grams MgSO4/day. For the same compound, the serum magnesium measurements entry (patient #1, also two hours after ingesting two grams of MgSO4) is “normal”. Besides, the “repeated chemistries and urine studies” value (patient #1, up to 12 grams/day orally) was “normal”.
